Results as given in PubChem BioAssay AID1419 (Emory University Molecular Libraries Screening Center, 2008).
The source made the active and inactive calls. No rule for the calls is given here.

Assay: blockers of an Epstein-Barr virus protein-peptide interaction – biochemical, fluorescence polarization, dose response (AID 1419)
Conditions: cell-free protein-peptide binding, 2 h; for fold change: measured here: P channel fold over control, at 54 µM

SMILES	IC50	fold change
O=C(c1ccc2nc(-c3ccco3)c(-c3ccco3)nc2c1)N1CCN(c2ncccn2)CC1	> 54 µM (inactive)	1.05
O=c1[nH]c(Nc2ccccc2)cc2ccccc12	2.02 µM	2.34
COc1ccc2nc(N3CCCCC3)c(C#N)cc2c1	4.61 µM	3.52
COc1ccc(-c2onc3ccc(Br)cc23)cc1	0.86 µM	7.24
Cn1c(=O)c(Nc2ccc(O)cc2)c2c3c(cccc31)C(=O)c1ccccc1-2	< 0.42 µM	3.86
CC1CCc2c(sc3nc(CN4CCOCC4)nc(NS(=O)(=O)c4cccc([N+](=O)[O-])c4)c23)C1 (stereo not given)	> 54 µM (inactive)	1.13
COC(=O)CN1C(=S)N(c2ccc(OC)cc2)C(=O)/C1=C/c1ccc(N2CCOCC2)cc1	6.67 µM	2.83
CSc1c(C#N)c(N)nc2sc(C(=O)c3ccc(Cl)c(Cl)c3)c(N)c12	1.74 µM	9.22
COc1ccc2c(c1)c1nc3ccccc3nc1n2CC(=O)OC(C)C	1.21 µM	6.79
C/C=C/C=C/[C@H]1Cc2cc(O)cc(O)c2O1	13 µM	2.04
N#C/C(=C\C=C\c1ccccc1)c1nc(-c2ccc3c(c2)OCO3)cs1	1.49 µM	14.2
CCOc1ccc2nc(N3CCCN(C(=O)Nc4ccccc4C)CC3)c(C#N)cc2c1	8.65 µM	8.56
O=C(N=Nc1c(O)[nH]c2ccccc12)c1cc(-c2cccs2)[nH]n1	19.6 µM	0.72
CCOC(=O)c1c(Nc2ccccc2N)cc(C)nc1C	> 54 µM (inactive)	0.997
CCCn1c(=C(C#N)C#N)s/c(=C2\C=Cc3ccccc3N2CC)c1=O	> 54 µM (inactive)	1.52
CC1(c2ccc3noc(-c4ccc(F)cc4)c3c2)OCCO1	1.53 µM	3.53
CN1CC=C2C(C#N)=C(N)C(C#N)(C#N)[C@H](c3ccoc3)[C@H]2C1	> 54 µM (inactive)	1.96
O=C(O)CSc1cc(C(=O)c2ccccc2O)cn2c(=O)c3c4c(sc3nc12)CCCC4	> 54 µM (inactive)	1.02
O=C(Nc1cccc([N+](=O)[O-])c1)c1cnccn1	> 54 µM (inactive)	1.09
CCOc1ccc(N/C=C/C(=O)c2ccc(OC)cc2)c([N+](=O)[O-])c1	4.13 µM	2.81
CC(C)COc1ccc(C(=O)NC(CC(C)C)C(=O)O)cc1 (stereo not given)	> 54 µM (inactive)	1.07

Second part, led by results:

IC50	SMILES	fold change
> 54 µM (inactive)	N#Cc1c(SCC(N)=O)nc2c(c1-c1ccc(O)cc1)CCCC2	0.89
> 54 µM (inactive)	CN(C)c1ccc(Nc2c3c4c(cccc4n(C)c2=O)C(=O)c2ccccc2-3)cc1	1.1
> 54 µM (inactive)	O=C(C1=NN(c2ccccc2)C2C(=O)N(c3ccc(Cl)cc3)C(=O)C12)c1ccccc1 (stereo not given)	5.95
6.7 µM	COc1ccc(-c2c(C#N)c(N)nc3sc(C(=O)c4ccccc4)c(N)c23)cc1	7.69
4.02 µM	N#Cc1c(C#N)c(O)c2ccccc2c1O	3.34
> 54 µM (inactive)	COc1ccc(NC(=O)CSc2nc3c(c(-c4cccs4)c2C#N)CN(C)CC3)cc1OC	1.37
< 0.42 µM	COc1ccc(C2C(C(=O)c3cccs3)=C(O)C(=O)N2c2nncs2)cc1 (stereo not given)	13
< 0.42 µM	CC1=CC(C#N)(C#N)C(C#N)(C#N)C(c2ccccc2)N1 (stereo not given)	10
3.61 µM	O=C(N/N=C/c1cccc(F)c1)c1cc(-c2ccco2)nc2ccccc12	1.06
> 54 µM (inactive)	COc1ccc(Nc2nc(=O)c3cc([N+](=O)[O-])ccc3s2)cc1	0.377
> 54 µM (inactive)	O=C(NC(NC(=S)Nc1ccc(Cl)cc1Cl)C(Cl)(Cl)Cl)c1cccc([N+](=O)[O-])c1 (stereo not given)	0.953
3.19 µM	NS(=O)(=O)c1ccc(N/N=C/c2ccc(O)c(O)c2O)c([N+](=O)[O-])c1	1.05
1.49 µM	CC1=NOC(=O)/C1=C\c1ccc(-c2cc(Cl)ccc2Cl)o1	4.14
1.17 µM	CCN(CC)c1ccc2cc(NC(=O)CCC(=O)O)c(=O)oc2c1	12
> 54 µM (inactive)	O=C(COC(=O)c1ccc(NS(=O)(=O)c2cccs2)cc1)NCc1ccco1	1.01
> 54 µM (inactive)	OCCNc1nc(Nc2ccc(Br)cc2)nc2ccccc12	0.987
< 0.42 µM	CCOC(=O)c1cc(-c2ccc(/C=C3/C(=O)NC(=O)C(C#N)=C3C)o2)ccc1Cl	2.14
> 54 µM (inactive)	CN(C)c1cccc(C(=O)OCc2cc(=O)oc3cc(O)ccc23)c1	1.01
2.03 µM	Cc1cccc(N=Nc2c(O)[nH]c3ccc(F)cc23)c1	12
